From patent US7790738B2, “Methods of treating and preventing AIDS using of COX-2 inhibitors” (Lauras AS, priority 2000, dated 2010)
Where two headings read alike, the source gives them in different places.

Legend:
COX-1 [1] = target: T1, COX-1 (Bos taurus, UniProt O62664)
T1 construct: IC50 values for NSAID's in intact cell on COX-1; endogenous in cells; host or cells: bovine endothelial cells
T1 sequence (O62664 25-600): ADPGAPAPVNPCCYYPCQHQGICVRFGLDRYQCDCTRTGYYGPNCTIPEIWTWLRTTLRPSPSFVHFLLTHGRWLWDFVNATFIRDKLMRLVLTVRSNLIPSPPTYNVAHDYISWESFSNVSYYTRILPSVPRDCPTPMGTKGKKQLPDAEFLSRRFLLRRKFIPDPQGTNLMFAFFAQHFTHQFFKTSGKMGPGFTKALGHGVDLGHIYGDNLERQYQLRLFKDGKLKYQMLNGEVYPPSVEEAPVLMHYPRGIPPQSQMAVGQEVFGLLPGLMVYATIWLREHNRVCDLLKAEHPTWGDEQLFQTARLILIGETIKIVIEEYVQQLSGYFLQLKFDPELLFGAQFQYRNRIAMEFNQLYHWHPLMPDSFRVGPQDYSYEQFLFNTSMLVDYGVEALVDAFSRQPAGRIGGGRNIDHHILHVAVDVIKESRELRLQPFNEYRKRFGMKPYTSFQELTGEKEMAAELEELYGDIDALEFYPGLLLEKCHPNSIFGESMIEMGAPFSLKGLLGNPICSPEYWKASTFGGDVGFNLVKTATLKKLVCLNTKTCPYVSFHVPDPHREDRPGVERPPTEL

COX-2 [2] = target: T2, COX-2 (Mus musculus, UniProt Q05769); details: cited from earlier work; for IC50: read-out: COX-2 IC50
T2 construct: endogenous in cells
T2 sequence (Q05769 18-604): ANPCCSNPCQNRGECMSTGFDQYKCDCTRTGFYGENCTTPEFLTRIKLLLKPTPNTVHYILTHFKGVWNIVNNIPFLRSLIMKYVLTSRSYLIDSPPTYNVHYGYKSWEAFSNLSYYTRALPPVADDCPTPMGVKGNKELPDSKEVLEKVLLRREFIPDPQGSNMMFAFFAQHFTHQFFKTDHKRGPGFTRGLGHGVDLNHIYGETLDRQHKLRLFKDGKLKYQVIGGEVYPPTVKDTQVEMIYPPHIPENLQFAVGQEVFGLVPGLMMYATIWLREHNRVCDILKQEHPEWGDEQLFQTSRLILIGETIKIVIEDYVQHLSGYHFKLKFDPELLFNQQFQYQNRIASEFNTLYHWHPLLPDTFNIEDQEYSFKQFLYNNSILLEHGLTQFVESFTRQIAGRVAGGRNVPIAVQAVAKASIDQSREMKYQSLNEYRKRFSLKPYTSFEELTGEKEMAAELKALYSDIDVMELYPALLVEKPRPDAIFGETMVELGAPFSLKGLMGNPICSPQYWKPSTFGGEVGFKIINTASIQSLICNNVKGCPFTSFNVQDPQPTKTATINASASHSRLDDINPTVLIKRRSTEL

COX-1 [3] = target: COX-1 (Homo sapiens, UniProt P23219); details: recombinant human PGH synthesis; Laneuvill et al. 1994; cited from earlier work
Chain of COX-1 (Homo sapiens, UniProt P23219) (P23219 24-599): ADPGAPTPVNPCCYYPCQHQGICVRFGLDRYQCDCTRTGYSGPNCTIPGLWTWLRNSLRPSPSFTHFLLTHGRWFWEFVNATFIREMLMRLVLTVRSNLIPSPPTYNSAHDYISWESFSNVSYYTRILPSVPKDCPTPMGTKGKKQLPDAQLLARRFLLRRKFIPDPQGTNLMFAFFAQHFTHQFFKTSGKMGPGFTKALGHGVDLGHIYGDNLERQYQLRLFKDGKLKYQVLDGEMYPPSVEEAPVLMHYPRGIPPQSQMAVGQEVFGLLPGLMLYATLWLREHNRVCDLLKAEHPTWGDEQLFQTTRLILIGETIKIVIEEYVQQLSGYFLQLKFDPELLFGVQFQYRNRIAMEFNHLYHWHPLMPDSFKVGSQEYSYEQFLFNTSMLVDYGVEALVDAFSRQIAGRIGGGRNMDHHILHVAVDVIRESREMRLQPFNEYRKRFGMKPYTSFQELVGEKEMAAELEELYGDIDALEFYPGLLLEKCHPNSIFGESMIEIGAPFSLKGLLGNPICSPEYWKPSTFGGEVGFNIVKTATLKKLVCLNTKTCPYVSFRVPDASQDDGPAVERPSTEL

COX-2 [4] = target: T3, COX-2 (Homo sapiens, UniProt P35354); details: cited from earlier work; for IC50: read-out: COX-2 IC50; for COX-2 selectivity COX-1/COX-2: ratio of IC50, recombinant human enzymes
T3 sequence (P35354 18-604): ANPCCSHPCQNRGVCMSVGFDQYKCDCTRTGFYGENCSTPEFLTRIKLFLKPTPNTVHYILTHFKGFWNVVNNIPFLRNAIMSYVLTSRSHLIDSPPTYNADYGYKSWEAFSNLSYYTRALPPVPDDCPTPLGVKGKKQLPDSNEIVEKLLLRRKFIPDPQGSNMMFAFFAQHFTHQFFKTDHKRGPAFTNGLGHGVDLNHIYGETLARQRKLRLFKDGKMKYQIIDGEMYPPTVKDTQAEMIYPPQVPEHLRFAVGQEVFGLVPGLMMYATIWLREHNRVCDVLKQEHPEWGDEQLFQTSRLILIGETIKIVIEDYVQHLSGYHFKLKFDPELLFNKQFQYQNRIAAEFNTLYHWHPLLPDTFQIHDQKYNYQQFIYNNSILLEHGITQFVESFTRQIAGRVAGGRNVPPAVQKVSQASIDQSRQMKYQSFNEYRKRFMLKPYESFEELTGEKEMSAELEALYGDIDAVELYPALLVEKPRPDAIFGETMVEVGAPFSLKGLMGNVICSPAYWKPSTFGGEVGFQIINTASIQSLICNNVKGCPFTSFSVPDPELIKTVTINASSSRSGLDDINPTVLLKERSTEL

[5] = test system: CD3+ T cells from MAIDS and control mice; test: TCR/CD3 stimulated proliferation of isolated T cells, [3H]-thymidine incorporation; format: cell-based, mouse; details: median, read-out: Inhibition of proliferation by 8-CPT-cAMP (IC50)
Protocol: TCR/CD3 stimulated T cell proliferation was assessed with isolated T cells from MAIDS mice (A) and uninfected control mice (B). The effect of increasing concentrations of cAMP agonist (8-CPT-cAMP) on TCR/CD3 stimulated proliferation of CD3+ T cells isolated from MAIDS (open circles, dotted line) and control mice (filled circles and solid line) was examined separately in the same experiments (C). Mean values of triplicate determinations±SD are shown. See Table 4 for summarised data (n=11). Note: Scaling differs in A and B, whereas in C the TCR/CD3 induced proliferation in the absence of cAMP agonist is normalized to 100% for both MAIDS and control T cells;
Activation was achieved by subsequent addition of monodisperse magnetic beads coated with sheep anti-mouse IgG (Dynal, cat. no. 110.02) at a cell:bead ratio of 1:1 followed by addition of anti-CD3 (clone 2C11) at a final dilution of 4 μg/ml for the experiments shown. […] 8-CPT-cAMP was from Sigma (St. Louis, Mo.) and Sp- and Rp-8-Br-cAMPS were from BioLog Life Science Company (Bremen, Germany) and were all dissolved to concentrations of 4 to 10 mM in PBS and concentrations calculated using the extinction coefficients given by the manufacturer.

COX-1 [6] = target: COX-1 (Cavia porcellus, UniProt H0V9X9); details: read-out: COX-1 IC50; guinea pig macrophage model; Engelhart et al. 1995; cited from earlier work
Chain of COX-1 (Cavia porcellus, UniProt H0V9X9) (H0V9X9 entry or part of it): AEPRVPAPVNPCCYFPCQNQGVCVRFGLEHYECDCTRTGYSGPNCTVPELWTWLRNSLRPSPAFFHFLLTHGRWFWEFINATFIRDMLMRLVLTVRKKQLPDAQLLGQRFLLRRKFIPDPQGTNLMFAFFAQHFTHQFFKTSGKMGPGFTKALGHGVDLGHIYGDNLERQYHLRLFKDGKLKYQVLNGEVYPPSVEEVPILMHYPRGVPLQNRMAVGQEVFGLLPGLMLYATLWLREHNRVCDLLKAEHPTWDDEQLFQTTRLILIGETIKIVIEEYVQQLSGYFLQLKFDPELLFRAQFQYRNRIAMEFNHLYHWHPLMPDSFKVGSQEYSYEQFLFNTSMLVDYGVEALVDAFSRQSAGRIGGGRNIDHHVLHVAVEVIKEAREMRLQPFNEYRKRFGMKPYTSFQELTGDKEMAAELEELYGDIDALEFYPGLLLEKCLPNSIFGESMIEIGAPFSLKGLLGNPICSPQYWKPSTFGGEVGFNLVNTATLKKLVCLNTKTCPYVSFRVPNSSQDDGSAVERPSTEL

[7] = recombinant human PGH synthesis, Laneuvill et al. 1994

Compound	IC50 (COX-1 [3]) [µM]	IC50 (COX-2 [4]; [7]) [µM]	COX-2 selectivity COX-1/COX-2 (COX-2 [4])	also measured
CN1OCC/C(=C\c2cc(C(C)(C)C)c(O)c(C(C)(C)C)c2)C1=O [BF 389]	–	–	–	IC50 (COX-1 [1]; intact cell, bovine endothelial cells; Taketo 1998; read-out: COX-1 IC50; cited from earlier work): 0.15 µM; IC50 (COX-2 [2]; intact cell, stimulated macrophages, Taketo 1998): 0.03 µM; COX-2 selectivity COX-1/COX-2 (COX-2 [2]; ratio of IC50, intact cells): 5
O=C(O)c1ccccc1O [Salicyclic acid]	> 1000	> 1000	–	–
Nc1ncnc2c1nc(Sc1ccc(Cl)cc1)n2[C@@H]1O[C@@H]2COP(=O)(O)O[C@H]2[C@H]1O [8-CPT-cAMP]	–	–	–	IC50 ([5]; MAIDS mice, n = 5): 0.22 µM; IC50 ([5]; control mice, n = 4): 0.4 µM
NC1=NN(c2cccc(C(F)(F)F)c2)CC1 [BW 755C]	–	–	–	IC50 (COX-1 [1]; read-out: COX-1 IC50; intact cell, bovine endothelial cells; Taketo 1998; cited from earlier work): 0.65 µM
O=C(c1ccccc1)c1ccc2n1CCC2C(=O)O (stereo not shown) [Ketorolac tromethamine]	31.5	–	0.5	–
Cc1ccc(Cl)c(Nc2ccccc2C(=O)O)c1Cl [Meclofenemate]	1.5	9.7	0.15	–
NC(=O)N1C(=O)/C(=C(\O)c2cccs2)c2cc(Cl)ccc21 [Teridep]	–	–	–	IC50 (COX-1 [6]): 0.393 µM
CC/C=C\C/C=C\C/C=C\C/C=C\C/C=C\C/C=C\CCC(=O)O [DHA (22:6)]	25.6	41	0.6	–
CCc1cccc2c3c([nH]c12)C(CC)(CC(=O)O)OCC3 (stereo not shown) [Etodolac]	–	–	–	IC50 (COX-2 [4]): 60 µM
COc1ccc2cc([C@H](C)C(=O)O)ccc2c1 [Naproxen]	–	–	–	IC50 (COX-2 [2]): 1.3 µM
